The assay has as its target T1, renin (Homo sapiens, UniProt P00797).
T1 sequence (P00797 67-406): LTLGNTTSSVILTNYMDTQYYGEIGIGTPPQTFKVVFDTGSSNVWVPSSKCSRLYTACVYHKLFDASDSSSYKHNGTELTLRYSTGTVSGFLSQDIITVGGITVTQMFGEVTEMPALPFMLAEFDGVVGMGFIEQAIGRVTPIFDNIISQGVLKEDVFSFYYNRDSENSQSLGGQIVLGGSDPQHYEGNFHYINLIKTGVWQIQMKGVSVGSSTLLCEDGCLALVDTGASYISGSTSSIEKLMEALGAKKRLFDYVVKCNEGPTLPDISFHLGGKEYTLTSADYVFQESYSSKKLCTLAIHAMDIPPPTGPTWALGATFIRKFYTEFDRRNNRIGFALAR
The assay is described as follows: renin inhibitory activity (IC50), determined as described in EP 0173481, pages 103-105. In kind it is biochemical. Particulars: renin inhibition. The source says: The determination of renin inhibitory activity of the compounds of the present invention (ICso's) are well known to one of ordinary skill in the art, as, for example, described in published European application 0173481, published 5 March 1986, pages 103-105.

*1 amine or outer side, *2 acyl side, *3 side chain or, on linkers, in order; H or OH if unused. Where a SMILES comes first, the peptide text is derived from it. [ ]: non-standard residue; d: D form. The star is where a group is joined. NH(β-GlcNAc) = CC(=O)N[C@@H]1[C@@H](O)[C@H](O)[C@@H](CO)O[C@H]1N*; X1 = CC(C)C[C@H](N[*:1])[C@@H](O)C[C@H](C(=O)[*:2])C(C)C; X2 = OC[C@H]1O[C@@H](N*)[C@@H](O)[C@@H](O)[C@@H]1O; GlcN = OC[C@H]1OC(O)[C@H](N*)[C@@H](O)[C@@H]1O; NMeH = CN[C@@H](Cc1c[nH]cn1)C(=O)O; NHCH2(2-pyridyl) = c1ccc(CN*)nc1; Boc = CC(C)(C)OC(=O)*; CO = O=C([*:1])[*:2]

What is called IC50 is the concentration at which inhibition is half-maximal. A higher IC50 goes with a need for much substance.

`CC[C@H](C)[C@H](NC(=O)[C@@H](C[C@H](O)[C@H](CC(C)C)NC(=O)[C@H](Cc1c[nH]cn1)N(C)C(=O)[C@H](Cc1ccccc1)NC(=O)[C@@H]1CCCN1C(=O)[C@H](CC(=O)N[C@@H]1O[C@H](CO)[C@@H](O)[C@H](O)[C@@H]1O)NC(=O)OC(C)(C)C)C(C)C)C(=O)NCc1ccccn1` [Example 38, β-Man-α-N-Boc-Asn-Pro-Phe-N-MeHis-Leu[CH(OH)CH2]-Val-Ile-AMP] (Boc-D(X2)PF[NMeH][X1]I-{NHCH2(2-pyridyl)}) returned an IC50 (values given in molar units) of 0.55 nM.

Molecule `COc1ccc(C[C@H](NC(=O)[C@@H]2CCCN2C(=O)NC(CO)(CO)CO)C(=O)N[C@@H](Cc2c[nH]cn2)C(=O)N[C@@H](CC2CCCCC2)[C@@H](O)[C@@H](O)CC(C)C)cc1` [Example 14, L-Histidinamide, 1-[[[2-hydroxy-1,1-bis(hydroxymethyl)ethyl]amino]carbonyl]-L-prolyl-O-methyl-L-tyrosyl-N-[1-(cyclohexylmethyl)-2,3-dihydroxy-5-methylhexyl]-, [1S-(1R*,2S*,3R*)]-] registered an IC50 (values in nM) of 0.21 nM.

In turn, `COC(=O)CC[C@H](NC(=O)[C@@H](C[C@H](O)[C@H](CC1CCCCC1)NC(=O)[C@H](Cc1c[nH]cn1)N(C)C(=O)[C@H](Cc1ccccc1)NC(=O)[C@@H]1CCCN1C(=O)NC(CO)(CO)CO)C(C)C)C(=O)NCc1ccccn1` (relative stereo) [Example 32, [1 S-[1R*,2R*,4R*(R*)]]-1-[[[2-Hydroxy-1,1-bis(hydroxymethyl)ethyl]amino]carbonyl]-L-prolyl-L-phenylalaryl-N-[1-(cyclohexylmethyl)-2-hydroxy-4-[[[4-methoxy-4-oxo-1-[[(2-pyridinylmethyl)amino]carbonyl]-butyl]-amino]carbonyl]-5-methyl-hexyl]-Nα-methyl-L-histidinamide] came in with an IC50 (values given in molar units) of 0.3 nM.

Molecule `CC(C)C[C@H](O)[C@H](O)[C@H](CC1CCCCC1)NC(=O)[C@H](Cc1c[nH]cn1)N(C)C(=O)[C@H](Cc1ccccc1)NC(=O)[C@@H]1CCCN1C(=O)N[C@H]1C(O)O[C@H](CO)[C@@H](O)[C@@H]1O` (relative stereo) [Example 13, L-Histadinamide, 1-([(2-deoxy-D-glucopyranos-2-yl)amino]carbonyl]-L-prolyl-L-phenylalanyl-N-[1-(cyclohexylmethyl)-2,3-dihydroxy-5-methylhexyl]-N.aIpha.-methyl-, [1 S-(1 R*,2S*,3R(*)]]-] returned a concentration for half-maximal inhibition (IC50) (values in nM) of 2.4 nM.

On to `CC[C@H](C)[C@H](NC(=O)[C@@H](C[C@H](O)[C@H](CC(C)C)NC(=O)[C@H](Cc1c[nH]cn1)N(C)C(=O)[C@H](Cc1ccccc1)NC(=O)[C@@H]1CCCN1C(=O)[C@H](CC(=O)N[C@@H]1O[C@H](CO)[C@@H](O)[C@H](O)[C@H]1NC(C)=O)NC(=O)OC(C)(C)C)C(C)C)C(=O)NCc1ccccn1` [Example 36, β-N-AcGLc-α-N-Boc-Asn-Pro-Phe-N-MeHis-Leu[CH(OH)CH2]-Val-Ile-AMP] (Boc-D(NH(β-GlcNAc))PF[NMeH][X1]I-{NHCH2(2-pyridyl)}), for which 0.41 nM corresponded to half-maximal inhibition (values given in molar units) (IC50). This counts as sub-nanomolar.

Take `CC(C)C[C@H](O)[C@H](O)[C@H](CC1CCCCC1)NC(=O)[C@H](Cc1c[nH]cn1)N(C)C(=O)[C@H](Cc1ccccc1)NC(=O)[C@@H]1CCCN1C(=O)NC(CO)(CO)CO` (relative stereo) [Example 12, L-Histidinamide, 1-[[[2-hydroxy-1,1-bis(hydroxymethyl)ethyl]amino]carbonyl]-L-prolyl-L-phenylalanyl-N-[1 (cyclohexylmethyl)-2,3-dihydroxy-5-methylhexyl]-Nα-methyl-, [1 S-(1 R*,2S*,3R*)-]-]: the IC50 (values in nM) came out at 0.26 nM.

In turn, `COc1ccc(C[C@H](NC(=O)[C@@H]2CCCN2C(=O)N[C@H]2C(O)O[C@H](CO)[C@@H](O)[C@@H]2O)C(=O)N[C@@H](Cc2c[nH]cn2)C(=O)N[C@@H](CC2CCCCC2)[C@@H](O)[C@@H](O)CC(C)C)cc1` (relative stereo) [Example 15] displayed an IC50 (values in nM) of 2.3 nM.

On to `CC[C@H](C)[C@H](NC(=O)[C@@H](C[C@H](O)[C@H](CC(C)C)NC(=O)[C@H](Cc1c[nH]cn1)N(C)C(=O)[C@H](Cc1ccccc1)NC(=O)[C@@H]1CCCN1C(=O)N[C@H]1C(O)O[C@H](CO)[C@@H](O)[C@@H]1O)C(C)C)C(=O)NCc1ccccn1` (stereo partly drawn) [Example 9, N-(Glucosaminocarbonyl)-Pro-Phe-N(Me)His-LVA-lie-AMP] ({GlcN-CO}-PF[NMeH][X1]I-{NHCH2(2-pyridyl)}), for which the IC50 (values given in molar units) turned out to be 0.49 nM.

Take `CC(C)[C@H](C[C@H](O)[C@H](CC1CCCCC1)NC(=O)[C@H](Cc1c[nH]cn1)N(C)C(=O)[C@H](Cc1ccccc1)NC(=O)[C@@H]1CCCN1C(=O)N[C@H]1C(O)O[C@H](CO)[C@@H](O)[C@@H]1O)C(=O)NC[C@H](C)O` (relative stereo) [Example 29, [1 S-[1 R*,2R*,4R*(R*)]]-1-[[(2-Deoxy-D-glucopyranos-2-yl)amino]carbonyl]-L-Prolyl-L-phenylalaryl-N-[1-(cyclohexylmethyl)-2-hydroxy-4-[[(2-hydroxypropyl)-amino]carbonyl]-5-methylhexyl]-Nα-methyl-L-histidinamide]: where the note is “values given in molar units”, the IC50 was found to be 1.5 nM. This IC50 lies about 3.1-fold higher than the previous one.

For the origin of these results see patent EP0329295A1, “Renin inhibiting peptides with polar end groups” (THE UPJOHN COMPANY, priority 1988, dated 1989).
